Assay results as given in US4269855A, “(3-Alkylamino-2-hydroxypropoxy)-furan-2-carboxylic acid anilides and physiologically tolerated acid addition salts thereof and medicaments containing them” (A. Nattermann & Cie. GmbH, priority 1979, dated 1981).
Structures can show the parent of a compound that is named as a salt.

Legend:
in vivo = assay: in vivo
Protocol: The acute toxicity was determined on NMRI mice by intravenous or oral administration of increasing doses of the compounds of the invention. The death rates were determined within the 7-day follow-up period and the average lethal dose was determined by probit analysis.

β-receptor [1] = target: β-receptor (Canis lupus familiaris, UniProt P79148); assay: Inhibition of isoprenalin-induced increase in contractile force (dp/dtmax), anaesthetised dogs; format: in vivo, mongrel dogs; settings: for ED50: dog, anaesthetised dogs, isoprenalin 0.5 μg/kg i.v., determined graphically
Chain of β-receptor (Canis lupus familiaris, UniProt P79148) (P79148 whole entry): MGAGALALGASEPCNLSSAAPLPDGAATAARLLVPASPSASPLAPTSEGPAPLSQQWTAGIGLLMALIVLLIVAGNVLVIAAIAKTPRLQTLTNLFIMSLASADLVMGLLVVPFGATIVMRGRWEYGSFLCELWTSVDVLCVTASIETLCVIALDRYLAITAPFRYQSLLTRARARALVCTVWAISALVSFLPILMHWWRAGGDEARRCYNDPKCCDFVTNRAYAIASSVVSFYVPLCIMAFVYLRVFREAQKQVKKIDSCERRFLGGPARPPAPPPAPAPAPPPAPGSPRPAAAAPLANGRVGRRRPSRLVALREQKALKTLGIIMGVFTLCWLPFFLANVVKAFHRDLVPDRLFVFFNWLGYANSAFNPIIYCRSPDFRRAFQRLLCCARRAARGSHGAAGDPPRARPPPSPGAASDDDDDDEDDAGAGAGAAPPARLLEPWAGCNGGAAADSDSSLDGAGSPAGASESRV
Protocol: (§1) The ventricular pressure of mongrel dogs, anesthetized with chloralose-urethane, was determined, together with other circulation parameters, with the aid of a Millar tip catheter (type PC 350 A, Millar Instruments, Houston, Tex.) introduced into the left heart ventricle, and the maximum rate of pressure increase (dp/dtmax) was determined by differentiation (HSE operational amplifier, Hugstetten). This rate serves as a measure of the contractile force.

β-receptor [2] = target: T1, β-receptor (Cavia porcellus, UniProt H0W3H1); assay: Inhibition of isoprenalin-induced increase in pulse rate, isolated guinea pig right auricle; design: species or system guinea pig (Pirbright White); settings: Bath, isoprenalin 5.8×10^-9 molar, probit analysis, read-out: ED50, inhibition of increase in pulse rate induced by isoprenalin
T1 sequence (H0W3H1 1-470): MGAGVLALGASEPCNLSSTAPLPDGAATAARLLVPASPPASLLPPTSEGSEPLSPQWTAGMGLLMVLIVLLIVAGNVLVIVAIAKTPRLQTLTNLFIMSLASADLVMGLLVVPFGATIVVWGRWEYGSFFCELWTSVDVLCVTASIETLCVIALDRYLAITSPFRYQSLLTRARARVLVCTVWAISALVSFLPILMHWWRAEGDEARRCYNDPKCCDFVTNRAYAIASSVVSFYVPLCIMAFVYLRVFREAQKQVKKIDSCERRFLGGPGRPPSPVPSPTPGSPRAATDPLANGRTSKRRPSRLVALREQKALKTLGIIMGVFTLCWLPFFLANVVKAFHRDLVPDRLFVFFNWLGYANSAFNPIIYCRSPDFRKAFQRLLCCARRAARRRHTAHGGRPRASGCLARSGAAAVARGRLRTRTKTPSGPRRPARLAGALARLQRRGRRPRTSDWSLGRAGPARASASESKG

β-receptor [3] = assay: β-receptor blocking action, isolated organs and whole animal (overall statement); settings: in words
Protocol: as §1

β-receptor [4] = target: T1, β-receptor; assay: Inhibition of isoprenalin-induced increase in contractile force, isolated guinea pig left auricle; design: species or system guinea pig (Pirbright White); settings: Bath, isoprenalin 3.2×10^-8 molar, probit analysis, read-out: ED50, inhibition of increase in contractile force induced by isoprenaline

In the case of `CC(C)(C)NCC(O)COc1ccccc1NC(=O)c1ccco1` (centres unmarked) [Example 1, 2'-(2-hydroxy-3-tert.-butylaminopropoxy)-furan-2-carboxylic acid anilide], the selectivity ratio (in vivo; in vivo) is reported as 4560, the toxicity (in vivo; in words) is reported as “very favorable” and the LD50 at 168 h (in vivo; mouse, in vivo, iv) is reported as 55 mg/kg. For the same compound, the LD50 at 168 h (in vivo; mouse, in vivo, po) was 502 mg/kg, the “"therapeutic range" quotient (LD50/ED50), times as high as the compounds already known” value (in vivo; versus propranolol hydrochloride and practolol hydrochloride) was 1.5-3 times and the ED50 (β-receptor [1]; intraduodenal) was 0.11 mg/kg. For the same compound, the ED50 (β-receptor [1]; intravenous) was 0.025 mg/kg, the “action when administered intraduodenally” value (β-receptor [1]; intraduodenal, in words) was “good action” and the IC50 (β-receptor [2]) was 98 nM. For the same compound, the “β-receptor blocking action / pharmacological activity” value (β-receptor [3]) was “strong β-receptor blocking action both on isolated organs and on the whole animal” and the IC50 (β-receptor [4]) was 290 nM.

With `CC(=O)Nc1ccc(OCC(O)CNC(C)C)cc1` (centres unmarked) [Practolol Hydrochloride, reference compound] the selectivity ratio (in vivo; in vivo) was 3190, the “LD50, acute toxicity” value (in vivo; mouse, in vivo, iv, 168 h) was 148 mg/kg and the LD50 at 168 h (in vivo; mouse, in vivo, po) was 2870 mg/kg. The ED50 (β-receptor [1]; intraduodenal) was 0.9 mg/kg, the IC50 (β-receptor [2]) was 710 nM and the IC50 (β-receptor [4]) was 2300 nM.
